In assay [1] the test system is cyclophosphamide-induced pollakiuria rats. Briefly: bladder capacity of cyclophosphamide-induced pollakiuria rats under urethane anesthesia (Experimental Example 1, NK-1 + NK-2 antagonist). The following applies: for bladder capacity Before administration: cyclophosphamide 200 mg/kg i.p. the day before, baseline before i.v. drug; for bladder capacity Before administration / bladder capacity (%) increase / bladder capacity After administration: Compound No. 3 0.3 mg/kg, SR48968 10 mg/kg, mean ± standard error of 5-7 animals; for bladder capacity (%) increase / bladder capacity After administration: cyclophosphamide 200 mg/kg i.p., 10 min. after i.v. administration; for effect on bladder capacity (in words): cyclophosphamide-treated animals, i.v., sole vs combined administration at the doses of Table 1. It counts as in vivo. On the procedure: The effect afforded by the combined use of compound No. 3 and (±)SR48968 hydrochloride on the suppressive action on pollakiuria and urinary incontinence was shown by the ability to increase bladder capacity of cyclophosphamide-induced pollakiuria rats under a urethane anesthesia. Cyclophosphamide (200 mg/kg) or a solvent was intraperitoneally administered and the rats were subjected to the bladder capacity test the next day. […] The changes in the bladder capacity at 10 min. after administration were measured.
The data are expressed in mean±standard error.

For assay [2] the test system is unchanged. Briefly: bladder capacity of cyclophosphamide-induced pollakiuria rats under urethane anesthesia (Experimental Example 2, NK-1 antagonist + anti-cholinergic drug). Particulars: for bladder capacity Before administration: cyclophosphamide 200 mg/kg i.p. the day before, baseline before i.v. drug; for bladder capacity Before administration / bladder capacity (%) increase / bladder capacity After administration: Compound No. 3 0.3 mg/kg, oxybutynin chloride 1 mg/kg, mean ± standard error of 5-7 animals; for bladder capacity (%) increase / bladder capacity After administration: cyclophosphamide 200 mg/kg i.p., 10 min. after i.v. administration; for effect on bladder capacity (in words): cyclophosphamide-treated animals, i.v., sole vs combined administration at the doses of Table 2.

On to `CC(=O)NC1(c2ccccc2)CCN(CC[C@H](CN(C)C(=O)c2ccccc2)c2ccc(Cl)c(Cl)c2)CC1` (racemic) [SR48968], for which, in assay [1], the “bladder capacity Before administration” value worked out at 0.99 ± 0.08 mL, the “bladder capacity (%) increase” value was 3.8 ± 3.3%, the “bladder capacity After administration” value stood at 1.03 ± 0.09 mL and the “effect on bladder capacity (in words)” value is reported as “does not increase the bladder capacity”.

As to `CCN(CC)CC#CCOC(=O)C(O)(c1ccccc1)C1CCCCC1` (stereo not shown) [oxybutynin chloride], in assay [2], the “bladder capacity Before administration” value worked out at 0.76 ± 0.13 mL, the “bladder capacity (%) increase” value is on record as 6.9 ± 12.4%, the “bladder capacity After administration” value is 0.78 ± 0.12 mL and the “effect on bladder capacity (in words)” value is “does not increase the bladder capacity”.

Consider `Cc1ccc(-c2c3n(c(=O)c4ncccc24)CC[C@@H](C)CN(Cc2cc(C(F)(F)F)cc(C(F)(F)F)c2)C3=O)cc1` [Compound No. 3, (9R)-7-[3,5-bis(trifluoromethyl)benzyl]-6,7,8,9,10,11-hexahydro-9-methyl-5-(4-methylphenyl)-6,13-dioxo-13H-[1,4]diazocino[2,1-g][1,7]naphthyridine], for which, in assay [1], the “bladder capacity Before administration” value came to 1.06 ± 0.14 mL, the “bladder capacity (%) increase” value was −0.28 ± 5.3%, the “bladder capacity After administration” value was found to be 1.05 ± 0.14 mL and the “effect on bladder capacity (in words)” value was “does not increase the bladder capacity”. Further, in assay [2], the “bladder capacity Before administration” value came to 0.66 ± 0.08 mL, the “bladder capacity (%) increase” value is 28.6 ± 12.4%, the “bladder capacity After administration” value stood at 0.80 ± 0.09 mL and the “effect on bladder capacity (in words)” value is “does not increase the bladder capacity”.

Source of the values: US20040058914A1, “Combination drugs” (priority 2000, published 2004).
